Measured values as given in US20200278355A1, “CONJUGATED PROTEINS AND USES THEREOF” (THE SCRIPPS RESEARCH INSTITUTE, priority 2017, published 2020).

Columns and labels:
[1] = test system: CRY1, DEPDC1, and CPLX2 expression in KEAP1-mutant NSCLC cells (H460, H2122); test: Gene expression changes (RNA sequencing, qPCR) in KEAP1-mutant NSCLC cells; format: cell-based, human; conditions: 12 h; for gene expression changes (CRY1, DEPDC1, CPLX2): KEAP1-mutant NSCLC cells
Description: FIG. 13A-FIG. 13E illustrate characterization of NR0B1 ligands in Keap1-mutant NSCLC cells. […] Top: Heat map depicting changes in gene expression between H460 cells expressing shNRF2, shNR0B1 or a control (shGFP) and those treated with vehicle (DMSO), BPK-29 or BPK-9 (30 μM, 12 h). Expression for each condition was first normalized to appropriate controls (shGFP or DMSO) and then normalized by row. Bottom: Overlap between gene sets regulated in BPK-29-treated vs shNR0B1 H460 cells. Gene set enrichment analysis (GSEA) was applied to all genes that were differentially expressed between shNR0B1-H460 cells and shGFP-H460 cells or between H460 cells treated with BPK-29 or DMSO. Genes were ranked based on their FDR. The FDR q-value was computed by GSEA on the C2.all collection and a cut off of FDR<0.05 was required for a gene set to be considered enriched. […] H460 (left) or H2009 (right) cells were treated with vehicle, BPK-29, or BPK-9 (25 μM, 12 h). Gene expression changes for CRY1, DEPDC1, and CPLX2 were determined by qPCR and data represents mean values+SD (n=4-10). […] Cells were treated with the vehicle, BPK-29, or BPK-9 (30 μM, 12 h). Gene expression changes for Cry1, DEPDC1, and CPLX2 were determined by qPCR and data represents mean values+SD (n=4-6). […] H460 cells were treated with vehicle or BPK-29 or BPK-9 at the indicated concentrations for 9 h. Protein expression was analyzed by immunoblotting. […] Top: H460 cells were treated with cycloheximide (100 μg/mL) for the indicated time points and NR0B1 protein content assessed by immunoblotting. […] NR0B1 protein content was determined following cycloheximide treatment and data were fit into a one-phase exponential decay model. […]
RNA was isolated by RNeasy Kit (Qiagen) and digested with DNase (Qiagen) from n=3 samples per condition (cells expressing shGFP, shNRF2_1, shNR0B1_1 or shSNW1_1 or treated with DMSO, 30 μM BPK-29 or 30 μM BPK-9). RNA integrity (RIN) numbers were determined using the Agilent TapeStation prior to library preparation. mRNA-seq libraries were prepared using the TruSeq RNA library preparation kit (version 2) according to the manufacturer's instructions (Illumina). Libraries were then quantified, pooled, and sequenced by single-end 50 base pairs using the Illumina HiSeq 2500 platform at the Salk Next-Generation Sequencing Core. […] Libraries were sequenced at an average depth of 15 million reads per sample.
The spliced read aligner STAR (Dobin et al., 2013) was used to align sequencing reads to the human hg19 genome. Gene-level read counts were obtained based on UCSC hg19 gene annotation. DESeq2 (Love et al., 2014) was used to calculate differential gene expression based on uniquely aligned reads, and p-values were adjusted for multiple hypothesis testing with the Benjamini-Hochberg method.

[2] = target: T1, interactions of FLAG-tagged RBM45 or SNW1 with endogenous NR0B1 (Homo sapiens, UniProt P51843); test: NR0B1 protein interactions in compound-treated cells (FLAG immunoprecipitation, immunoblot); format: cell-based; conditions: for blockade of interactions of FLAG-tagged RBM45 or SNW1 with endogenous NR0B1: KEAP1-null HEK293T cells and KEAP1-mutant NSCLC cells; for blockade of interactions of FLAG-tagged RBM45 or SNW1 with endogenous NR0B1 / inhibition of NR0B1 interaction with FLAG-RBM45 or FLAG-SNW1: 3 h; for inhibition of NR0B1 interaction with FLAG-RBM45 or FLAG-SNW1: KEAP1-null HEK293T cells
T1 construct: endogenous in cells; host or cells: KEAP1-null HEK293T cells stably expressing FLAG-RBM45 or FLAG-SNW1
T1 sequence (P51843 1-470): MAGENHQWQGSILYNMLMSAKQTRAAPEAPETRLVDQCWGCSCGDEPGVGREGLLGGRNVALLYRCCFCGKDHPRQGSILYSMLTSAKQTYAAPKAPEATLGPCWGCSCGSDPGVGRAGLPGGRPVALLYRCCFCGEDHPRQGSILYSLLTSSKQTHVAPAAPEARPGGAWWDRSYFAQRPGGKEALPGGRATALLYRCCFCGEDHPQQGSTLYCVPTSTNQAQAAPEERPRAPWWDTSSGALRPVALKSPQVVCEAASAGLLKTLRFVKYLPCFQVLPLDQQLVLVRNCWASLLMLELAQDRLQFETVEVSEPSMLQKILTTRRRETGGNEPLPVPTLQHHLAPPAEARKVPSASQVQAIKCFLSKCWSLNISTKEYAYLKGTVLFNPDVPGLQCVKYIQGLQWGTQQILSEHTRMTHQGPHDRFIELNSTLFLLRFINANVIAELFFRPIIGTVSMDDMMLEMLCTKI
Description: Confluent 10 cm plates of indicated cell lines were rinsed once with warm PBS and incubated in serum/dye-free RPMI with indicated compounds or vehicle for 3 h at 37° C. Cells were washed once ice-cold PBS and snap frozen.
Cells were rinsed once with ice-cold PBS, and lysed by sonication in Triton IP buffer. Lysates were clarified by centrifugation at 16,000×g for 10 min. Samples were normalized to 1 mg ml^−1 and boiled following the addition of sample buffer. For FLAG- or HA-immunoprecipitations, FLAG or HA resins (30 μL, 50:50 slurry) were added to the pre-cleared lysates and incubated with rotation for 3 hours at 4° C. Following immunoprecipitation, the beads were washed once with IP buffer followed by 3 times with IP buffer containing 500 mM NaCl. Loading buffer (40 μL) was added to the immunoprecipitated proteins which were subsequently denatured by boiling. Proteins were resolved by SDS-PAGE, analyzed by immunoblotting and relative band intensities were quantified using ImageJ software.
Next it was asked whether BPK-26 and BPK-29 inhibited NR0B1 protein interactions in cells using two complementary systems. […] In both cell systems, BPK-26 and BPK-29, but not control compounds, blocked the interactions of FLAG-tagged RMB45 or SNW1 with endogenous NR0B1 (FIG. 6C and FIG. 12E-F).

SMILES	gene expression changes (CRY1, DEPDC1, CPLX2) ([1]; 30 μM)	blockade of interactions of FLAG-tagged RBM45 or SNW1 with endogenous NR0B1 [2]	inhibition of NR0B1 interaction with FLAG-RBM45 or FLAG-SNW1 [2]	relative potency for blockade of NR0B1-protein interactions ([2]; in cells)	expression of representative genes (CRY1, DEPDC1, CPLX2) by qPCR ([1]; KEAP1-mutant H460 cells, 25 μM)	expression of representative genes (Cry1, DEPDC1, CPLX2) by qPCR ([1]; KEAP1-mutant H2122 cells, 30 μM)
O=C(c1ccc(N2CCOCC2)cc1)N1CCC(CN(C(=O)CCl)c2cncnc2)CC1 [BPK-9, 2-chloro-N-((1-(4-morpholinobenzoyl)piperidin-4-yl)methyl)-N-(pyrimidin-5-yl)acetamide]	not observed					
O=C(c1ccc(N2CCOCC2)cc1)N1CCCC(N(Cc2ccccc2)C(=O)CCl)CC1 (stereo not drawn) [BPK-29, N-benzyl-2-chloro-N-(1-(4-morpholinobenzoyl)azepan-4-yl)acetamide]	reductions in CRY1, DEPDC1, and CPLX2	blocked	inhibit	better potency than BPK-26	alters the expression	alters the expression
O=C(CCl)N(Cc1cccc(Cl)c1F)c1ccc(Cl)nc1 [BPK-26, 2-chloro-N-(3-chloro-2-fluorobenzyl)-N-(6-chloropyridin-3-yl)acetamide]		blocked	inhibit			
